According to PubChem BioAssay AID256 (DTP/NCI, 2004):
Values joined by “and” are separate entries in the source; they are usually repeats but may differ in a detail not shown here. Equal values may be shown once. Inconclusive results and toxic doses are left out. How the source made its calls: active means survival T/C of 150% or more; inactive means T/C below 125% in these data.

Tested on: CD2F1 mice, L1210 leukemia ip, survival T/C
Experiment: NCI In Vivo Anticancer Drug Screen. Data for tumor model L1210 Leukemia (intraperitoneal) in CD2F1 (CDF1) mice
Conditions: higher = longer survival
Method in brief: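 In this screen, transplantable tumors were grown in mice given either the compound or its vehicle. Results were expressed as the treated measurement relative to the control measurement.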

[1] = endpoint: mean survival time, dose: 100.0 mg/kg/injection, schedule: Q01DX009 (ip), vehicle: saline
[2] = endpoint: mean survival time, dose: 100.0 mg/kg/injection, schedule: Q04DX003 (ip), vehicle: other
[3] = endpoint: mean survival time, dose: 200.0 mg/kg/injection, schedule: Q01DX009 (ip), vehicle: saline
[4] = endpoint: mean survival time, dose: 200.0 mg/kg/injection, schedule: Q04DX003 (ip), vehicle: other
[5] = endpoint: mean survival time, dose: 25.0 mg/kg/injection, schedule: Q01DX009 (ip), vehicle: saline with Tween-80
[6] = endpoint: mean survival time, dose: 50.0 mg/kg/injection, schedule: Q01DX009 (ip), vehicle: saline with Tween-80
[7] = endpoint: mean survival time, dose: 100.0 mg/kg/injection, schedule: Q04DX003 (ip), vehicle: saline
[8] = endpoint: mean survival time, dose: 100.0 mg/kg/injection, schedule: Q01DX009 (ip), vehicle: saline with Tween-80
[9] = endpoint: mean survival time, dose: 200.0 mg/kg/injection, schedule: Q01DX009 (ip), vehicle: saline with Tween-80
[10] = endpoint: mean survival time, dose: 400.0 mg/kg/injection, schedule: Q01DX009 (ip), vehicle: saline with Tween-80
[11] = endpoint: mean survival time, dose: 100.0 mg/kg/injection, schedule: Q04DX003 (ip), vehicle: saline with Tween-80
[12] = endpoint: mean survival time, dose: 200.0 mg/kg/injection, schedule: Q04DX003 (ip), vehicle: saline with Tween-80
[13] = endpoint: mean survival time, dose: 400.0 mg/kg/injection, schedule: Q04DX003 (ip), vehicle: saline with Tween-80
[14] = endpoint: mean survival time, dose: 50.0 mg/kg/injection, schedule: Q01DX009 (ip), vehicle: saline
[15] = endpoint: mean survival time, dose: 12.5 mg/kg/injection, schedule: Q01DX009 (ip), vehicle: saline with Tween-80

Measured: T/C

Cc1ccc(/C=C2\CC(C)(C)c3ccccc3C2=O)cc1
inactive: [1] 96 % of control | [2] 104 % of control | [3] 94 % of control | [4] 100 % of control | endpoint: mean survival time, dose: 400.0 mg/kg/injection, schedule: Q01DX009 (ip), vehicle: saline 94 % of control | endpoint: mean survival time, dose: 400.0 mg/kg/injection, schedule: Q04DX003 (ip), vehicle: other 105 % of control

CC(=O)Oc1ccc2ccccc2c1
inactive: [5] 100 % of control | [6] 107 % of control | endpoint: mean survival time, dose: 100.0 mg/kg/injection, schedule: Q01DX001 (ip), vehicle: saline with Tween-80 107 % of control

CCN(CC)C(=O)c1ccc[n+](Cc2ccc(Cl)c(Cl)c2)c1
inactive: [7] 103 % of control

OC1CCCC/C1=C/C=C/c1ccccc1 (configuration not stated)
inactive: [8] 92 % of control and 91 % of control | [9] 94 % of control and 92 % of control | [10] 93 % of control

NOc1ccc([N+](=O)[O-])cc1[N+](=O)[O-]
inactive: [5] 89 % of control

Cc1ccc([N+](=O)[O-])cc1NC(=O)COc1cc(Cl)c(Cl)cc1Cl
inactive: [11] 110 % of control | [12] 90 % of control | [13] 90 % of control

Cc1ccccc1N=C(NO)c1ccccc1
inactive: [14] 98 % of control | [1] 98 % of control | [3] 95 % of control

O=C(O)c1ccccc1C(=O)NCc1ccccn1
inactive: endpoint: mean survival time, dose: 50.0 mg/kg/injection, schedule: Q01DX009 (ip), vehicle: Klucel (hydroxypropylcellulose) (HPC) 90 % of control | endpoint: mean survival time, dose: 100.0 mg/kg/injection, schedule: Q01DX009 (ip), vehicle: Klucel (hydroxypropylcellulose) (HPC) 97 % of control | endpoint: mean survival time, dose: 200.0 mg/kg/injection, schedule: Q01DX009 (ip), vehicle: Klucel (hydroxypropylcellulose) (HPC) 101 % of control

CCNC(C)(C)C(SSSC(c1ccc(Cl)cc1)C(C)(C)NCC)c1ccc(Cl)cc1 (configuration not stated)
inactive: [7] 109 % of control | endpoint: mean survival time, dose: 200.0 mg/kg/injection, schedule: Q04DX003 (ip), vehicle: saline 86 % of control

CC(C)(C)CC(C)(C)c1ccc(OCCOc2ccccc2N)cc1
inactive: [8] 88 % of control | [9] 88 % of control | [10] 94 % of control

O=C(O)/C(Br)=C/c1ccccc1
inactive: [6] 100 % of control | [8] 90 % of control | [11] 103 % of control | [9] 90 % of control | [12] 110 % of control | [13] 110 % of control

NC(=S)Nc1ccc(C(=O)O)cc1
inactive: [8] 96 % of control | [11] 93 % of control | [9] 100 % of control | [12] 94 % of control | [10] 86 % of control | [13] 90 % of control

NC(=O)OCCc1c2ccccc2nc2ccccc12
inactive: endpoint: mean survival time, dose: 25.0 mg/kg/injection, schedule: Q04DX002 (ip), vehicle: other 96 % of control | endpoint: mean survival time, dose: 50.0 mg/kg/injection, schedule: Q04DX002 (ip), vehicle: other 93 % of control | endpoint: mean survival time, dose: 100.0 mg/kg/injection, schedule: Q04DX002 (ip), vehicle: other 93 % of control | endpoint: mean survival time, dose: 100.0 mg/kg/injection, schedule: Q04DX002 (ip), vehicle: saline with Tween-80 105 % of control | endpoint: mean survival time, dose: 400.0 mg/kg/injection, schedule: Q04DX002 (ip), vehicle: saline with Tween-80 105 % of control

CC(=O)OC1CC2CCC1(C)C2(C)C (configuration not stated)
inactive: [11] 101 % of control | [12] 95 % of control

CN1C(=O)CN=C(c2ccccn2)c2cc(Cl)ccc21
inactive: endpoint: mean survival time, dose: 100.0 mg/kg/injection, schedule: Q01DX009 (ip), vehicle: saline sonified 97 % of control | endpoint: mean survival time, dose: 200.0 mg/kg/injection, schedule: Q01DX009 (ip), vehicle: saline sonified 90 % of control | endpoint: mean survival time, dose: 400.0 mg/kg/injection, schedule: Q01DX009 (ip), vehicle: saline sonified 102 % of control

CCCSc1ccccc1
inactive: endpoint: mean survival time, dose: 100.0 mg/kg/injection, schedule: Q01DX001 (ip), vehicle: saline 100 % of control | endpoint: mean survival time, dose: 200.0 mg/kg/injection, schedule: Q01DX001 (ip), vehicle: saline 102 % of control

CCOC(=O)[C@]1(Br)CC[C@@]1(Br)C(=O)OCC
inactive: [15] 96 % of control | [5] 95 % of control and 96 % of control | [6] 92 % of control and 96 % of control | [8] 93 % of control and 101 % of control | [9] 100 % of control and 101 % of control | [10] 98 % of control and 106 % of control

O=C1C(Sc2ccc3ccccc3c2)=C(Sc2ccc3ccccc3c2)C(=O)c2ccccc21
inactive: endpoint: mean survival time, dose: 25.0 mg/kg/injection, schedule: Q04DX003 (ip), vehicle: saline with Tween-80 94 % of control | endpoint: mean survival time, dose: 50.0 mg/kg/injection, schedule: Q04DX003 (ip), vehicle: saline with Tween-80 94 % of control

O=C1NC(CN2CCC(O)CC2)C(=O)NC1CN1CCC(O)CC1 (configuration not stated)
inactive: endpoint: mean survival time, dose: 3.13 mg/kg/injection, schedule: Q01DX009 (ip), vehicle: water 97 % of control | endpoint: mean survival time, dose: 6.25 mg/kg/injection, schedule: Q01DX009 (ip), vehicle: water 95 % of control | endpoint: mean survival time, dose: 12.5 mg/kg/injection, schedule: Q01DX009 (ip), vehicle: water 97 % of control | endpoint: mean survival time, dose: 25.0 mg/kg/injection, schedule: Q01DX009 (ip), vehicle: water 100 % of control | endpoint: mean survival time, dose: 50.0 mg/kg/injection, schedule: Q01DX009 (ip), vehicle: water 100 % of control | endpoint: mean survival time, dose: 100.0 mg/kg/injection, schedule: Q01DX009 (ip), vehicle: water 108 % of control

O=C(O)c1cccs1
inactive: [2] 100 % of control | [4] 102 % of control

Cc1c(N=Nc2cc[n+]([O-])cc2)ccc(N(C)C)c1C
inactive: [11] 102 % of control | [12] 97 % of control

[C-]1=CC2C=CC1C1[C-]=CC21.[Cl][Pd][Cl] (configuration not stated)
inactive: [15] 94 % of control

Brc1ccc(Br)cc1
inactive: [8] 103 % of control | [9] 100 % of control | [10] 97 % of control

CC1=CCc2c(c(NS(=O)(=O)c3ccccc3)c3ccccc3c2NS(=O)(=O)c2ccccc2)C1
inactive: endpoint: mean survival time, dose: 37.5 mg/kg/injection, schedule: Q01DX001 (ip), vehicle: saline sonified 95 % of control | endpoint: mean survival time, dose: 75.0 mg/kg/injection, schedule: Q01DX001 (ip), vehicle: saline sonified 96 % of control | endpoint: mean survival time, dose: 150.0 mg/kg/injection, schedule: Q01DX001 (ip), vehicle: saline sonified 89 % of control

C=C(Br)CNC(=O)C(C)C
inactive: endpoint: mean survival time, dose: 5.0 mg/kg/injection, schedule: Q01DX009 (ip), vehicle: saline with Tween-80 98 % of control | endpoint: mean survival time, dose: 10.0 mg/kg/injection, schedule: Q01DX009 (ip), vehicle: saline with Tween-80 100 % of control | endpoint: mean survival time, dose: 20.0 mg/kg/injection, schedule: Q01DX009 (ip), vehicle: saline with Tween-80 100 % of control

COC(=O)c1csc(NC2OC(CO)C(O)C2O)n1 (configuration not stated)
inactive: endpoint: median survival time, dose: 45.9 mg/kg/injection, schedule: Q01DX005 (ip), vehicle: saline 100 % of control | endpoint: median survival time, dose: 91.8 mg/kg/injection, schedule: Q01DX005 (ip), vehicle: saline 100 % of control | endpoint: median survival time, dose: 183.6 mg/kg/injection, schedule: Q01DX005 (ip), vehicle: saline 97 % of control

CC1CN(C(=N)C#N)C(C)CN1C(=N)C#N (configuration not stated)
inactive: endpoint: mean survival time, dose: 6.25 mg/kg/injection, schedule: Q01DX009 (ip), vehicle: saline with Tween-80 96 % of control | [15] 102 % of control | [5] 105 % of control

CNC(=O)Nc1cc(C)ccc1OC
inactive: [14] 106 % of control | [1] 101 % of control | [3] 107 % of control

CC(O)(C(=O)O)c1ccccc1 (configuration not stated)
inactive: endpoint: mean survival time, dose: 75.0 mg/kg/injection, schedule: Q01DX001 (ip), vehicle: saline 102 % of control | endpoint: mean survival time, dose: 150.0 mg/kg/injection, schedule: Q01DX001 (ip), vehicle: saline 112 % of control | endpoint: mean survival time, dose: 300.0 mg/kg/injection, schedule: Q01DX001 (ip), vehicle: saline 100 % of control
